Experiments:
[1] = test system: clonic seizures caused by pentylenetetrazole in rats; assay: Protection Against Clonic Siezures Caused by Pentylenetetrazole in Rats; assay type: in vivo; details: Dose 25 mg/kg, orally or intraperitoneally, pentylenetetrazole 23 mg/kg i.v. at 30 or 60 minutes
Method: The antianxiety properties of the novel compounds of the present invention have been established in a test which indicates anxiolytic activity by the measure of protection from convulsions resulting from the administration of pentylenetetrazole. Single or graded dose levels of the test compounds were administered orally or intraperitoneally in a 2% starch vehicle, containing 0.5% v/v polyethylene glycol and one drop of Polysorbate 80 to groups of at least four rats. At 30 or 60 minutes, the rats were treated intravenously with pentylenetetrazole at a dose of 23 mg/kg of body weight. This dose is estimated to cause clonic seizures in 99% of unprotected rats.
It has been reported [R. T. Hill and D. H. Tedeschi, "Animal Testing and Screening Procedures in Evaluating Psychotropic Drugs" in An Introduction to Psychopharmacology, Eds. R. R. Rech and K. E. Moore, Raven Press, New York, pp 237-288 (1971)] that there is a high degree of correlation between antagonism of pentylenetetrazole seizures in rats and antianxiety effects in higher warm-blooded animals.

[2] = test system: Brain-specific Receptors of Rats (^3 H-benzodiazepine binding); assay: Inhibition of the Binding of ^3 H--Benzodiazepine to Brain-specific Receptors of Rats; parameters: species or system rats (male albino, Wistar strain); details: 1 μM; whole cortex of rats, P2 fraction; ^3 H-diazepam (1.5 nM) or ^3 H-flunitrazepam (1.0 nM)
[3] = test system: conflict situation in rats; assay: Non-Conditioned Passive Avoidance Test in Rats; assay type: in vivo, Wistar strain rats; parameters: key: Active: considered active if the number of shocks received by the test group is significantly higher than the control group by the Mann-Witney U test; details: Dose 25 mg/kg, oral or intraperitoneal, 30 or 60 minutes
Method: Another test which has been used to assess anti-anxiety effects is a non-conditioned passive avoidance procedure described by J. R. Vogel, B. Beer and D. E. Clody, "A Simple and Reliable Conflict Procedure for Testing Antianxiety Agents", Psychopharmacologia, 21, 1-7 (1971). A conflict situation was induced in rats by a modification of this method.
Groups of 6 naive, Wistar strain rats, weighing 200-240 g each, were deprived of water for 48 hours and food for 24 hours. The test compounds were administered in single or graded, oral or intraperitoneal doses, suspended in a 2% starch vehicle containing 0.5% v/v polyethylene glycol and one drop of Polysorbate 80. Control animals received the vehicle alone. At 30 or 60 minutes each rat was placed in an individual plexiglass chamber. Water was available ad libitum from a tap located in the rear of the chamber. A 0.7 milliampere DC shocking current was established between the stainless steel grid floor and the tap. After 20 licks of non-shocked drinking, a shock was delivered for 2 seconds and then further shocks were delivered on a ratio of one shock for 2 seconds for every 20 licks. This was continued for a total of 3 minutes. The number of shocks taken by each rat during the 3 minute interval was recorded and compared to a control group.

Row | SMILES | % of Rats Protected [1] | % Inhibition [2] | Result [3]
1 | Cc1nnc2ccc(-c3cccnc3)cn12 [3-Methyl-6-(3-pyridinyl)-1,2,4-triazolo[4,3-a]pyridine] | 75% | 20% | –
2 | Cc1nnc2cc(-c3ccccn3)ccn12 [3-Methyl-7-(2-pyridinyl)-1,2,4-triazolo[4,3-a]pyridine] | – | 27% | –
3 | Cc1nnc2cc(-c3ccncc3)ccn12 [3-Methyl-7-(4-pyridinyl)-1,2,4-triazolo[4,3-a]pyridine] | – | 24% | –
4 | Cc1nnc2c(-c3ccccn3)cccn12 [3-Methyl-8-(2-pyridinyl)-1,2,4-triazolo[4,3-a]pyridine] | – | 22% | Active
5 | Cc1nnc2c(-c3cccnc3)cccn12 [3-Methyl-8-(3-pyridinyl)-1,2,4-triazolo[4,3-a]pyridine] | – | 24% | Active
6 | c1ccc(-c2cccc3nncn23)nc1 [5-(2-Pyridinyl)-1,2,4-triazolo[4,3-a]pyridine] | – | 26% | –
7 | c1cncc(-c2ccc3nncn3c2)c1 [6-(3-Pyridinyl)-1,2,4-triazolo[4,3-a]pyridine] | 33% | 13% | –
8 | c1ccc(-c2ccn3cnnc3c2)nc1 [7-(2-Pyridinyl)-1,2,4-triazolo[4,3-a]pyridine] | 25% | 15% | –
9 | c1ccc(-c2cccn3cnnc23)nc1 [8-(2-Pyridinyl)-1,2,4-triazolo[4,3-a]pyridine] | – | 26% | –
10 | c1cncc(-c2cccn3cnnc23)c1 [8-(3-Pyridinyl)-1,2,4-triazolo[4,3-a]pyridine] | – | 18% | –

Reference: patent publication US4550166A, “(Pyridinyl)-1,2,4-triazolo[4,3-a]pyridines” (American Cyanamid Company, priority 1984, dated 1985)
